Measurements taken from patent EP3510997B1, “SOFT GELATIN CAPSULES COMPRISING A SUSPENSION OF TADALAFIL” (Gap S.A., priority 2018, dated 2019).

Assays:
[1] = Solubility studies of tadalafil in vegetable oils; type: physicochemical; conditions: such as olive oil, sunflower oil, safflower oil, soybean oil
Text: Suspension formulations of tadalafil were initially produced in soybean oil, and in a mixture of hydrogenated and partially-hydrogenated soybean oil in order to produce a stable suspension.

[2] = cited from earlier work

## CN1CC(=O)N2[C@H](c3ccc4c(c3)OCO4)c3[nH]c4ccccc4c3C[C@@H]2C1=O [Tadalafil, (6R,12aR)-6-(Benzo[d][1,3]dioxol-5-yl)-2-methyl-2,3,12,12a]
[1]
  solubility in vegetable oils: practically insoluble
[2]; ethanol and other organic solvents
  solubility in ethanol and other organic solvents: very slightly soluble
[2]; water
  solubility in water: practically insoluble
